Results reported in US11753447B2, “Cyclic peptides, methods of synthesis, and methods of treatment” (priority 2020, dated 2023).
Numbered stars: 1 amine (or outer) side, 2 acyl side, 3 side chain; on linkers, the order of the positions; unused ones are H or OH. Square brackets hold non-standard residues; d marks the D form. Peptide text beside a SMILES is read from it. X1 = O=C(Cc1ccc(CCN[*:1])cc1)[*:2]

Key:
SARS-CoV-2 M^pro [1] = biological target: T1, SARS-CoV-2 M^pro (Severe acute respiratory syndrome coronavirus 2, UniProt P0DTD1); assay: biochemical; settings: 0.1 μM M^pro, 50 μM fluorogenic substrate, 30 min pre-incubation, 37° C., non-linear regression of initial rates; read-out: IC50 against M^pro
T1 construct: purchased Life Sensors

SARS-CoV-2 M^pro [2] = biological target: T1, SARS-CoV-2 M^pro; assay: LC/MS analysis of enzyme inhibition assay well solution for cleavage of UCI-1 by M^pro; assay type: biochemical; settings: 187.5 μM UCI-1 well solution after 4 hours, compared with peptide-1c spike
HEK-293 cells = settings: 72 hours
SARS-CoV-2 = settings: cell-based studies; cited from earlier work

| Structure (SMILES) | SARS-CoV-2 replication (SARS-CoV-2) | also measured |
| --- | --- | --- |
| NCCCC[C@@H]1NC(=O)[C@H](CO)NC(=O)[C@H](CCC(N)=O)NC(=O)[C@H](Cc2ccccc2)NC(=O)Cc2ccc(cc2)CCNC1=O [UCI-1] (cyclo(FQSK[X1])) |  | IC50 (SARS-CoV-2 M^pro [1]): ~160 µM; cleavage by M^pro (SARS-CoV-2 M^pro [2]): not appreciably cleaved; cytotoxicity (HEK-293 cells; concentrations up to 256 μM, HEK-293): not cytotoxic; LDH release from HEK-293 cells (HEK-293 cells; highest concentration evaluated (256 μM)): little or no LDH release |
| Cc1cc(C(=O)NC(C)C(=O)NC(C(=O)NC(CC(C)C)C(=O)NC(C=CC(=O)OCc2ccccc2)CC2CCNC2=O)C(C)C)no1 (centres unmarked) [N3] | block SARS-CoV-2 replication |  |
| O=C[C@H](C[C@@H]1CCNC1=O)NC(=O)[C@H](Cc1cccc(F)c1)NC(=O)c1cc2ccccc2[nH]1 [11b] | block SARS-CoV-2 replication |  |
| O=C[C@H](C[C@@H]1CCNC1=O)NC(=O)[C@H](CC1CCCCC1)NC(=O)c1cc2ccccc2[nH]1 [11a] | block SARS-CoV-2 replication |  |
| CC(C)(C)OC(=O)Nc1cccn([C@@H](CC2CC2)C(=O)N[C@@H](C[C@@H]2CCNC2=O)C(=O)C(=O)NCc2ccccc2)c1=O [13b] | block SARS-CoV-2 replication |  |
